The target of assay [1] is T1, recombinant human NAMPT (Homo sapiens, UniProt P43490).
T1 construct: purchased 91004
The assay is described as follows: NAMPT in vitro enzymatic fluorescence assay. Type of assay: biochemical.
Protocol: Assay Conditions: The control compound is dissolved in DMSO. The dilution of the compounds was first performed in 100% DMSO with the highest concentration at 0.01 mM. […] For NAMPT, the compounds (see 2.2) were preincubated with NAMPT enzyme (see 2.3.1) in for 30 minutes. […] The final concentration of DMSO in all reactions was 1%. Fluorescence intensity was measured at an excitation of 340 nm and an emission of 460 nm using a Tecan Infinite M1000 microplate reader.
Data Analysis: NAMPT activity assays were performed in duplicates at each concentration. […] In the absence of the compound, the fluorescent intensity (Ft) in each data set was defined as 100% activity. In the absence of NAMPT, the fluorescent intensity (Fb) in each data set was defined as 0% activity. The percent activity in the presence of each compound was calculated according to the following equation: % activity=(F−Fb)/(Ft−Fb), where F=the fluorescent intensity in the presence of the compound. The values of percentage activity were plotted on a bar graph.

The target of assay [2] is T2, SIRT1 (Homo sapiens, UniProt Q96EB6).
T2 construct: purchased 50012
T2 sequence (Q96EB6 1-747): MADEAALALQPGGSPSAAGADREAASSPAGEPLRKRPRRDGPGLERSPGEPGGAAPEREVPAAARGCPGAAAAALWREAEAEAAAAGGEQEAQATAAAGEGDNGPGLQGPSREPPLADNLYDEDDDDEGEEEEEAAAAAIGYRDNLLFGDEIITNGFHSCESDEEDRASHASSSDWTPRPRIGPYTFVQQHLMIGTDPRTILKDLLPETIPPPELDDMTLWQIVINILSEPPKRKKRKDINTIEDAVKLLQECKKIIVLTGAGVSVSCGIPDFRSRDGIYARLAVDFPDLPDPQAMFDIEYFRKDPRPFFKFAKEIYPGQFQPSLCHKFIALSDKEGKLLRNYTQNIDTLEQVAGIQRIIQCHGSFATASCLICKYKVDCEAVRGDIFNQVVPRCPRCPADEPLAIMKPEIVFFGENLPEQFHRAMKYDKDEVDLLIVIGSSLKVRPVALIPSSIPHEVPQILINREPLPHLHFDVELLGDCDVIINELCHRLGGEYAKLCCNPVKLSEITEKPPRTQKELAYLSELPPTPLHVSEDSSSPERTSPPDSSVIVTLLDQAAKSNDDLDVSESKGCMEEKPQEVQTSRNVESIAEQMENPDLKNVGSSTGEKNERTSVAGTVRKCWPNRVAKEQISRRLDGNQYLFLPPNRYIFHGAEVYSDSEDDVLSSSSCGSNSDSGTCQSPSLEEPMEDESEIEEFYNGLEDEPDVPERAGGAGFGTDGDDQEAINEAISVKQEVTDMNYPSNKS
The assay is described as follows: SIRT1 fluorogenic HDAC substrate activity assay. Type of assay: biochemical.
Protocol: Assay Conditions: The sample was dissolved in 70% EtOH. The serial dilution of the compound was first performed in 70% EtOH with the highest concentration at 1%.
The enzymatic reactions for the SIRT1 enzyme were conducted in duplicate at 37° C. for 30 minutes in a 50 μl mixture containing SIRT assay buffer, 5 μg BSA, an HDAC substrate (see 2.3.1), a SIRT enzyme, and a test compound. After enzymatic reactions, 50 μl of 2× SIRT Developer was added to each well for the SIRT enzymes and the plate was incubated at room temperature for an additional 15 minutes. Fluorescence intensity was measured at an excitation of 360 nm and an emission of 460 nm using a Tecan Infinite M1000 microplate reader.
Data Analysis: SIRT activity assays were performed in duplicates at each concentration. […] In the absence of the compound, the fluorescent intensity (Ft) in each data set was defined as 100% activity. In the absence of SIRT, the fluorescent intensity (Fb) in each data set was defined as 0% activity. The percent activity in the presence of each compound was calculated according to the following equation: % activity=(F−Fb)/(Ft−Fb), where F=the fluorescent intensity in the presence of the compound.

Assay [3] has as its target T3, recombinant human CD47 (hCD47) with human SIRP-α (Homo sapiens, UniProt Q08722).
T3 construct: purchased 71177 (hCD47, Fc fusion); 71138 (hSIRP-α, Biotin-labeled)
Put plainly: CD47/SIRP-α in vitro binding assay. As for the experimental part: Assay Conditions: CD47 was coated using 50 μL at 2 ng/μL at 4° C. overnight. After wash and block steps the test compounds were added to CD47-coated plate followed by addition of SIRP-α-biotin. Reaction was incubated for 2 h at room temperature. Binding was detected using HRP-conjugated Streptavidin.

For assay [4], the target named is T4, human recombinant ARG1 (Homo sapiens, UniProt P05089).
T4 sequence (P05089 1-322): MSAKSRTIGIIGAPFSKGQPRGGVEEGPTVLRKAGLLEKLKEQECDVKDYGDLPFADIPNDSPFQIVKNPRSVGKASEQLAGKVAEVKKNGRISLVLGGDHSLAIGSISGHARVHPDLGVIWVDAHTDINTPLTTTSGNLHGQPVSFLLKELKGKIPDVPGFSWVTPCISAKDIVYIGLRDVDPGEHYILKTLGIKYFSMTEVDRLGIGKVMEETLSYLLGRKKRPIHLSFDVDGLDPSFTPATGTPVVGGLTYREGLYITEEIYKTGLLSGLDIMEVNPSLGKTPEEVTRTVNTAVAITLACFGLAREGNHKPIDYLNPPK
The assay is described as follows: ARG1 enzymatic inhibition assay (thioarginine substrate, UV absorbance 412 nm). Type of assay: biochemical.
Protocol: (§1) Assay conditions: The assay was performed using human recombinant ARG1 or ARG2 as enzymes and thioarginine as substrate. The UV absorbance at 412 nm was correlated with the amount of reaction product of ARG1/ARG2. […] 5 μl of 20× sample solutions were added to 90 μl of substrate, and reactions were started by the addition of 5 μl of 20× ARG1/ARG2 solutions. For the negative control (Blank), 5 μl of the assay buffer was added instead of the ARG1/ARG2. […] All reactions were conducted at room temperature and incubated for 30 minutes, ensuring that all wells, containing either samples or controls, contained 0.7% (v/v) EtOH final concentration to discard any solvent effect. UV absorbance readings were done at times 0 and 30 minutes to get net values. Absorbance was measured using a Tecan Infinite M1000 microplate reader.
(§2) Data Analysis: Experiment was performed in duplicate at each concentration. The data were analyzed using the software GraphPad Prism. In the absence of the compound, the net absorbance (At) in each data set was defined as 100% activity. In the absence of ARG1/ARG2, the net absorbance (Ab) in each data set was defined as 0% activity. The percent activity in the presence of each compound was calculated according to the following equation: % activity=[(A−Ab)/(At−Ab)]×100, where A=the absorbance in the presence of the compound.

Assay [5] has as its target T5, human recombinant ARG2 (Homo sapiens, UniProt P78540).
T5 sequence (P78540 23-354): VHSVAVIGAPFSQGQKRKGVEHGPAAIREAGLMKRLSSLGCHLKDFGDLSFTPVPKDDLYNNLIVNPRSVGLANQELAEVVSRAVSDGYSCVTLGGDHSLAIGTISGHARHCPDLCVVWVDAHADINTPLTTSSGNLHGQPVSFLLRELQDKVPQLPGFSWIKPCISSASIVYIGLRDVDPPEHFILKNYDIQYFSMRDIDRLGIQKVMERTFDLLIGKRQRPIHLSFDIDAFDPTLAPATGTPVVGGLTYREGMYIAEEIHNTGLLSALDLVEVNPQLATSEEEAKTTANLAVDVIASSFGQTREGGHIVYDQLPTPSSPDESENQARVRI
Put plainly: ARG2 enzymatic inhibition assay (thioarginine substrate, UV absorbance 412 nm). Type of assay: biochemical.
Protocol: as §1, §2

In assay [6] the target is T6, recombinant human IDO2 (Homo sapiens, UniProt Q6ZQW0).
T6 construct: purchased 71194
T6 sequence (Q6ZQW0 1-407): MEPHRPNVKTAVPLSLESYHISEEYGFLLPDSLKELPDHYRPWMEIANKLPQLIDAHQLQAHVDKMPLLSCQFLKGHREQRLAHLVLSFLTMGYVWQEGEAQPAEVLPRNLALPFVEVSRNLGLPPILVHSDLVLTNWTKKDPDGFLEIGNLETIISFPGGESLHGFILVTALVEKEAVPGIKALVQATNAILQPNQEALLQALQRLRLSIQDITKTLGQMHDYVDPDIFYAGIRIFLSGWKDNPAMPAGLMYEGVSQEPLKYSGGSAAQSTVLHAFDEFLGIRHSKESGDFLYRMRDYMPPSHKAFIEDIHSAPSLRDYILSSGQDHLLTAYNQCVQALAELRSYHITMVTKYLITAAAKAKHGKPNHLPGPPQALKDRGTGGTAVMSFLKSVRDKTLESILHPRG
The assay is described as follows: IDO2 UV absorbance assay (L-tryptophan, 321 nm). Type of assay: biochemical. The settings on record: for Absorbance (net) Repeat 1 / Absorbance (net) Repeat 2: Table 46.

Setting [7] is: test concentration 0.001 μM, read-out: Activity (%) Rep. 1.
[8] abbreviates: test concentration 0.01 μM, read-out: Activity (%) Rep. 1.
[9] abbreviates: test concentration 0.1 μM, read-out: Activity (%) Rep. 1.
[10] abbreviates: read-out: Activity (%) Repeat 1.
Where [11] appears, read: read-out: Activity (%) Repeat 2.

Like-named read-outs stand apart in the source and are kept apart here.

T1 sequence (P43490 whole entry): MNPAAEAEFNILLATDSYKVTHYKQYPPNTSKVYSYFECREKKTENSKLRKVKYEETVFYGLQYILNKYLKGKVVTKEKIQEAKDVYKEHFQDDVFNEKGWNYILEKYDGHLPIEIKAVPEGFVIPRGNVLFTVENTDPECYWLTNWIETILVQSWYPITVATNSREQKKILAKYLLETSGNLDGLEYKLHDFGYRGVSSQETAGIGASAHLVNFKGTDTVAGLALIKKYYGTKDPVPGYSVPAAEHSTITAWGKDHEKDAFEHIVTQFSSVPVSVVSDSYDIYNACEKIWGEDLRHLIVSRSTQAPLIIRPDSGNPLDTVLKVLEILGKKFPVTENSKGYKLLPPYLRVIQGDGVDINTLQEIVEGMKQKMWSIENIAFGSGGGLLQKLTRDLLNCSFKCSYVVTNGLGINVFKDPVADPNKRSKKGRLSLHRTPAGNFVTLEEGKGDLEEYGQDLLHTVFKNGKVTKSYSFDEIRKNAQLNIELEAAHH
T3 sequence (Q08722 19-141 limits assumed): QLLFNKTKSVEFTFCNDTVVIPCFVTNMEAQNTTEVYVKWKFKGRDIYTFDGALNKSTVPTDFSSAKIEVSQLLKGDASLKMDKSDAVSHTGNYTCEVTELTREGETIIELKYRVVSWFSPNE

Broadly, the inhibition is the percentage by which the read-out fell short of the control. With `O=C(/C=C/c1cccnc1)NCCCCC1CCN(C(=O)c2ccccc2)CC1` [FK-866], in assay [1], the inhibition at 0.001 µM was determined as 4%, the inhibition at 0.01 µM turned out to be 57% and the inhibition at 0.1 µM came to 100%. Besides, in assay [1] (0.001 μM), the “Background (Fluorescence count) Repeat 1” value was 450, the “Background (Fluorescence count) Repeat 2” value was 442, the “NAMPT Activity (Fluorescence Intensity) Repeat 1” value came out at 3328 and the “NAMPT Activity (Fluorescence Intensity) Repeat 2” value is listed as 3345. In addition, in assay [1] (0.01 μM), the “Background (Fluorescence count) Repeat 1” value is 454, the “Background (Fluorescence count) Repeat 2” value was 461, the “NAMPT Activity (Fluorescence Intensity) Repeat 1” value is given as 1750 and the “NAMPT Activity (Fluorescence Intensity) Repeat 2” value came out at 1766. Moreover, in assay [1] (0.1 μM), the “Background (Fluorescence count) Repeat 1” value stood at 440, the “Background (Fluorescence count) Repeat 2” value amounted to 442, the “NAMPT Activity (Fluorescence Intensity) Repeat 1” value came out at 463 and the “NAMPT Activity (Fluorescence Intensity) Repeat 2” value worked out at 468. In assay [1] (read-out: % Activity Repeat 1), the activity at 0.001 µM is 95%, the activity at 0.01 µM was 42% and the activity at 0.1 µM was 0%. In assay [1] (read-out: % Activity Repeat 2), the activity at 0.001 µM is 96%, the activity at 0.01 µM turned out to be 43% and the activity at 0.1 µM was 0%.

For `Cc1ccc(C(=O)Nc2ccc(S(=O)(=O)O)c3cc(S(=O)(=O)O)cc(S(=O)(=O)O)c23)cc1NC(=O)c1cccc(NC(=O)Nc2cccc(C(=O)Nc3cc(C(=O)Nc4ccc(S(=O)(=O)O)c5cc(S(=O)(=O)O)cc(S(=O)(=O)O)c45)ccc3C)c2)c1` [Suramin], in assay [2], 0.1 µM produced 14% inhibition and the inhibition at 1 µM stood at 74%. Besides, in assay [2] (read-out: % Activity Repeat 1), the activity at 0.1 µM was determined as 85% and the activity at 1 µM stood at 26%. Moreover, in assay [2] (read-out: % Activity Repeat 2), the activity at 0.1 µM was 86% and the activity at 1 µM is 26%. Moreover, in assay [2] (test concentration 0.01 μM), the “SIRT1 Activity (Fluorescence count) Repeat 1” value is on record as 2415, the “SIRT1 Activity (Fluorescence count) Repeat 2” value is on record as 2415 and at 0.01 µM the inhibition was 0%. Further, the activity at 0.01 µM in assay [2] (test concentration 0.01 μM, read-out: % Activity Repeat 1) is 100%. Further, the activity at 0.01 µM in assay [2] (test concentration 0.01 μM, read-out: % Activity Repeat 2) was determined as 100%. In assay [2] (test concentration 0.1 μM), the “SIRT1 Activity (Fluorescence count) Repeat 1” value is recorded as 2074 and the “SIRT1 Activity (Fluorescence count) Repeat 2” value is 2082. Besides, in assay [2] (test concentration 1 μM), the “SIRT1 Activity (Fluorescence count) Repeat 1” value was 710 and the “SIRT1 Activity (Fluorescence count) Repeat 2” value is listed as 702.

Consider SIRP-α, for which, in assay [3] (0.05 μM), the “Activity (%) Repeat 1” value is on record as 93%, the “Activity (%) Repeat 2” value was determined as 97%, the Inhibition (%) is listed as 5% and the “Luminescence Repeat 1” value turned out to be 35347. The “Luminescence Repeat 2” value in assay [3] (0.05 μM) was 36581. Also, in assay [3] (0.5 μM), the “Activity (%) Repeat 1” value came to 52%, the “Activity (%) Repeat 2” value is on record as 51%, the Inhibition (%) stood at 49% and the “Luminescence Repeat 1” value came out at 19746. The “Luminescence Repeat 2” value in assay [3] (0.5 μM) turned out to be 19259. In assay [3] (5 μM), the “Activity (%) Repeat 1” value was 14%, the “Activity (%) Repeat 2” value is listed as 18%, the Inhibition (%) is 84% and the “Luminescence Repeat 1” value stood at 5310. Besides, the “Luminescence Repeat 2” value in assay [3] (5 μM) is on record as 6891.

Take `N=C(NO)NCC[C@H](N)C(=O)O` [nor-NOHA]: the “Net absorbance Rep. 1” value in assay [4] (test concentration 0.001 μM) is given as 0.74; in assay [4] (test concentration 0.01 μM) it was 0.59; in assay [4] (test concentration 0.1 μM), 0.23; in assay [5] (test concentration 0.001 μM), 0.78; in assay [5] (test concentration 0.01 μM), 0.56; in assay [5] (test concentration 0.1 μM), 0.19. In addition, the “Net absorbance Rep. 2” value in assay [4] (test concentration 0.001 μM) stood at 0.77; in assay [4] (test concentration 0.01 μM), 0.59; in assay [4] (test concentration 0.1 μM), 0.24; in assay [5] (test concentration 0.001 μM), 0.82; in assay [5] (test concentration 0.01 μM), 0.60; in assay [5] (test concentration 0.1 μM), 0.19. In addition, the inhibition at 0.001 µM turned out to be 0% in assay [4] (test concentration 0.001 μM, read-out: ARG-1 Inhibition (%)) and 17% in assay [5] (test concentration 0.001 μM, read-out: ARG-2 Inhibition (%)). The activity at 0.001 µM worked out at 99% in assay [4] (setting [7]); 102% in assay [4] (test concentration 0.001 μM, read-out: Activity (%) Rep.2); 81% in assay [5] (setting [7]); 84% in assay [5] (test concentration 0.001 μM, read-out: Activity (%) Rep. 2). Besides, the inhibition at 0.01 µM was 22% in assay [4] (test concentration 0.01 μM, read-out: ARG-1 Inhibition (%)) and 41% in assay [5] (test concentration 0.01 μM, read-out: ARG-2 Inhibition (%)). Also, the activity at 0.01 µM in assay [4] (setting [8]) is 79%; in assay [4] (test concentration 0.01 μM, read-out: Activity (%) Rep.2), 78%; in assay [5] (setting [8]), 57%; in assay [5] (test concentration 0.01 μM, read-out: Activity (%) Rep. 2) it was 62%. The inhibition at 0.1 µM in assay [4] (test concentration 0.1 μM, read-out: ARG-1 Inhibition (%)) was 69%; in assay [5] (test concentration 0.1 μM, read-out: ARG-2 Inhibition (%)) it was 81%. Moreover, the activity at 0.1 µM was 31% in assay [4] (setting [9]); 31% in assay [4] (test concentration 0.1 μM, read-out: Activity (%) Rep.2); 19% in assay [5] (setting [9]); 19% in assay [5] (test concentration 0.1 μM, read-out: Activity (%) Rep. 2).

Turning to `NS(=O)(=O)NCCNc1nonc1C(=NO)Nc1ccc(F)c(Br)c1` [INCB024360], in assay [6], the inhibition at 0.01 µM is 0%, the inhibition at 0.1 µM stood at 20% and the inhibition at 1 µM was found to be 60%. In addition, in assay [6] (0.01 μM), the “Absorbance (net) Repeat 1” value stood at 0.17 and the “Absorbance (net) Repeat 2” value is listed as 0.17. In addition, in assay [6] (0.1 μM), the “Absorbance (net) Repeat 1” value is 0.14 and the “Absorbance (net) Repeat 2” value turned out to be 0.15. In assay [6] (1 μM), the “Absorbance (net) Repeat 1” value is 0.10 and the “Absorbance (net) Repeat 2” value was 0.11. In assay [6] (setting [10]), the activity at 0.01 µM is 105%, the activity at 0.1 µM came out at 75% and the activity at 1 µM amounted to 35%. In addition, in assay [6] (setting [11]), the activity at 0.01 µM was 105%, the activity at 0.1 µM was 85% and the activity at 1 µM worked out at 45%.

The record behind these values is patent publication US11752188B2, “Compositions and methods for nutritional supplements” (DailyColors Health Inc., priority 2020, dated 2023).
